# Patent publication US6451818B1, “Therapeutic use of 1,6-dimethyl-8β-hydroxymethyl-10α-methoxyergoline” (Aventis Pharma S.A., priority 1998, dated 2002)
# Assays:
# [1] = system: motor neurons (astrocyte-conditioned medium); assay: Motor neuron survival in medium conditioned by treated spinal astrocyte monolayers (neurotrophic activity produced by spinal astrocytes); format: cell-based, rat; conditions: % of motor neurons in cultures with trophic factors
# Procedure: (§1) The motor-neuron-enriched cultures are prepared using the centrifugation method which was described by R. L. SCHNAAR and A. E. SCHAFFNER, J. Neurosci., 1, 204-217 (1981) and modified by W. CAMU and C. E. HENDERSON, J. Neurosci. Methods, 44, 59-70 (1992). The motor neurons are spread, at a density of 2500 cells per plate, on 35 mm culture plates which have previously been coated with laminin/ornithine in accordance with the method of A. G. ESTEVEZ et al., J. Neurosci., 18 (3), 923-931 (1998). The cultures are then maintained in L15 medium (GIBCO BRL) containing sodium bicarbonate (22 mM), conalbumin (0.1 mg/ml), putrescine (0.1 mM), insulin (5 μg/ml), sodium selenite ([…]), glucose (20 mM), progesterone (21 nM), penicillin (100 IU/ml) and streptomycin (100 μg/ml).
# The astrocytes are obtained from young, one-day-old rats using the slightly modified method of R. P. SANETO and J. DE VELLIS as described in Neurochemistry a practical approach (A. J. TURNER and H. A. St JOHN) IRL Press, Oxford-Washington D.C., pp. 27-63. The spinal cords are dissected out under sterile conditions and freed of meninges and dorsal ganglia. Five to ten spinal cords are transferred into PBS (phosphate buffered saline) and cut before being incubated at 37° C. for 25 minutes in PBS to which 0.25% trypsin has been added. The enzymatic treatment is stopped by adding 10 ml of Dulbecco's modified Eagle medium (DMEM), to which 10% fetal calf serum (FCS) has been added, and the cells are collected by centrifugation. Another step of mechanical dissociation is performed using the end of a 1 ml pipette. The cells are spread, at a density of 1.5-2×10^6 cells per 25 cm^2 of culture medium, in DMEM containing 10% FCS. After 2 days in vitro, the cultures are fed every day. […]
# (§2) The number of motor neurons is estimated by counting the labelled cells in an area of 0.4-1 cm^2 under a microscope which enlarges 200 times. In all cases, the values are expressed as a percentage of the number of motor neurons which are present in cultures maintained using trophic factors. […]
# [2] = system: motor neurons (astrocyte/motor neuron co-cultures); assay: Neuronal survival in astrocyte/motor neuron co-cultures; format: cell-based, rat; conditions: for % of labelled motor neurons, very large motor neurons: vehicle alone = 100 ± 2.8; for % of labelled motor neurons, all the motor neurons: vehicle alone = 100 ± 9.4
# Procedure: as §1
# (§3) The astrocytes are obtained from young, one-day-old rats using the slightly modified method of R. P. SANETO and J. DE VELLIS as described in Neurochemistry a practical approach (A. J. TURNER and H. A. St JOHN) IRL Press, Oxford-Washington D.C., pp. 27-63. The spinal cords are dissected out under sterile conditions and freed of meninges and dorsal ganglia. Five to ten spinal cords are transferred into PBS (phosphate buffered saline) and cut before being incubated at 37° C. for 25 minutes in PBS to which 0.25% trypsin has been added. The enzymatic treatment is stopped by adding 10 ml of Dulbecco's modified Eagle medium (DMEM), to which 10% fetal calf serum (FCS) has been added, and the cells are collected by centrifugation. Another step of mechanical dissociation is performed using the end of a 1 ml pipette. The cells are spread, at a density of 1.5-2×10^6 cells per 25 cm^2 of culture medium, in DMEM containing 10% FCS. After 2 days in vitro, the cultures are fed every day. When a visible monolayer of cells has been completed, the cultures are stirred at 250 rpm for 48 hours and, on the following day, the monolayers are treated with cytosine arabinoside (10^−5 M) for 48 hours. The astrocyte monolayers are then amplified to a density of five on 35 mm culture plates for initially 25 cm^2 culture flasks.
# The cells are fixed in 4% paraformaldehyde and 0.1% glutaraldehyde in PBS (pH 7.4 and at 4° C. for 15 minutes) and in a cold methanolic solution. The cultures are then washed and the nonspecific sites are blocked with 10% goat serum and 2% bovine serum albumin (BSA) in PBS and treated for immunochemistry using antibodies against the p75 weak affinity neurotrophin receptor or a 200 kD neurofilament protein (Amersham) using the manufacturer's instructions and applying the avidin-biotin-DAB/hydrogen peroxide enhancement reaction.
# The astrocytes are treated with 1,6-dimethyl-8β-hydroxymethyl-10α-methoxyergoline in the following manner: the product is dissolved in methanol, sterilized by filtration and used immediately after preparation. The treatment which is applied to the enriched motor neuron cultures is effected by adding aliquots of solutions of the products to be tested to the L15 medium by spreading. The astrocyte monolayers are exposed to the vehicle or to the solutions of the compound to be tested for 24 hours and at different concentrations. […]
# as §2
# [3] = system: trophic factor-deprived motor neurons; assay: Neuronal death in motor-neuron-enriched cultures in the absence of trophic factor; format: cell-based
# Procedure: as §1
# More than 70% of the cells are immunoreactive for the neurotrophin p75 receptor and the Islet ½ markers for spinal motor neurons. Approximately 70% of the motor neurons die by apoptosis 24 hours after the spreading if the culture is performed in the absence of a trophic factor. […]
# as §2
# [4] = system: motor neurons (co-cultures of astrocyte monolayers and motor neurons); assay: Motor neuron survival, co-cultures of astrocyte monolayers and motor neurons; format: cell-based, rat; conditions: vehicle alone 43.9 ± 4
# Procedure: as §1, §3
# The spinal astrocyte cultures consist, to an extent of more than 98%, of flat, polygonal cells which are immunoreactive for the glial fibrillar acid protein (GFAP). The monolayers are exposed to the product to be tested and then incubated with the motor neuron medium in order to obtain a conditioned culture medium. […]
# as §2
structure (smiles),measurement,setting,value
"CO[C@]12C[C@@H](CO)CN(C)[C@@H]1Cc1cn(C)c3cccc2c13 [1,6-Dimethyl-8β-hydroxymethyl-10α-methoxyergoline]",Motor neuron survival in %,"[1]; dilution of the astrocyte-conditioned medium 1:4, vehicle alone 59.9 ± 8",90.6 ± 4.9 %
same,Motor neuron survival in %,"[1]; dilution of the astrocyte-conditioned medium 1:10, vehicle alone 45.4 ± 4.2",74.8 ± 6.3 %
same,Motor neuron survival in %,"[1]; dilution of the astrocyte-conditioned medium 1:50, vehicle alone 36.9 ± 3.2",49.6 ± 5.3 %
same,"% of labelled motor neurons, very large motor neurons",[2]; 0.1 μM,122.6 ± 8.2 %
same,"% of labelled motor neurons, all the motor neurons",[2]; 0.1 μM,123 ± 9.3 %
same,"% of labelled motor neurons, very large motor neurons",[2]; 1 μM,117 ± 5.6 %
same,"% of labelled motor neurons, all the motor neurons",[2]; 1 μM,158.9 ± 32 %
same,"% of labelled motor neurons, all the motor neurons",[2]; 10 μM,137.5 ± 19 %
same,Neuronal arborization and cell morphology,[3],remain well preserved
same,Increase of the survival of trophic factor-deprived motor neurons,[3]; p<0.001,60%
same,Motor neuron survival in %,[4]; tested product 1 nM,42.5 ± 4%
same,Motor neuron survival in %,[4]; tested product 10 nM,48.9 ± 3 %
same,Motor neuron survival in %,[4]; tested product 100 nM,57.4 ± 4 %
same,Motor neuron survival in %,[4]; tested product 1 μM,68.7 ± 8 %
